The numbers were not newly measured in patent US20230131804A1, “FARNESOID X RECEPTOR AGONISTS FOR THE TREATMENT OF DISEASE” (Metacrine, Inc., priority 2020, published 2023), which cites them from elsewhere.

Entries after “also recorded” stand apart in the source; their conditions may differ.

The conditions of the series: published clinical studies, higher administered doses; cited from earlier work.

Turning to `CC[C@H]1[C@@H](O)[C@@H]2[C@H](CC[C@]3(C)[C@@H]([C@H](C)CCC(=O)O)CC[C@@H]23)[C@@]2(C)CC[C@@H](O)C[C@@H]12` [OCA, Obeticholic acid], the adverse side effects result is “pruritis, increased LDL cholesterol and liver toxicity; also recorded: adverse effects of increased LDL cholesterol and liver toxicity”.
